One series in a line: in vivo. The conditions noted are these: rabbit, iv.
The subject of a further series is cuticle bleeding time. Briefly: Cuticle Bleeding Time model in rabbits. The note with it: 1500 μg/kg+14.85 μg/kg/min. The series is classed as in vivo, rabbit. The procedure:
In an ancillary study, a Cuticle Bleeding Time model was used to evaluate the effect of test compounds on bleeding time (BT) measurements in rabbits. The standardized protocol involved anesthesia and catheterization of rabbits as previously described in this Example 43. To measure BT, a toe nail was cut 5 mm from the base of the cuticle with a canine nail trimming device. Time until cessation of bleeding was recorded by wicking the blood on to BT blotting paper in 30 second intervals. Test compound was administered as a bolus followed by infusion regimen. Two BT measurements were obtained prior to administration of test compound and three BT measurements accomplished serially after initiation of steady state infusion of test compound. BT measurements were allowed to continue for up to 30 minutes at which time it was stopped with application of silver nitrate. Blood samples were obtained just prior to all BT measurements and processed for measurement of hematological and coagulation parameters.

Series [1] relates to rabbit venous thrombosis. The note with it: in vivo.
Series [2] concerns coagulation parameters (aPTT, PT, FIB).
For series [3] the following is noted: rabbit, in vivo, iv, 2 mg/kg.
For series [4], the system named is rabbit venous thrombosis. In words: Rabbit deep vein thrombosis model. The conditions noted are these: bolus + infusion, doses 200 + 1.98 to 1500 + 14.85 μg/kg + μg/kg/min.

From patent publication US6046169A, “Inhibitors of factor XA” (COR Therapeutics, Inc., priority 1995, dated 2000) come the findings set out here.

Square brackets hold non-standard residues; d marks the D form. Peptide text beside a SMILES is read from it. * marks the point of attachment. Boc = CC(C)(C)OC(=O)*

The term half-life denotes how long it takes for the measured level to halve. Low readings indicate rapid decline, high ones slow decline. As usually defined, the Vd is the apparent volume that relates the amount in the body to the concentration in plasma or blood. High values mean extensive tissue distribution, low ones confinement near the circulation.

As for `CC(C)(C)OC(=O)N[C@H](CCCN=C(N)N)C(=O)NCC(=O)N[C@H](C=O)CCCN=C(N)N` [Boc--D-Arg--Gly--Arg--H, Boc-D-Arg-Gly-Arg-H] (Boc-[dR]-Gly-Arg-aldehyde), in the series “in vivo”, the half-life amounted to 1.18 h. In addition, in “in vivo” (2 mg/kg), the Vd amounted to 0.118 L/kg. Besides, in the series on cuticle bleeding time (cuticle BT experiments), the “changes in hematological parameters from pre to post administration” value was “no significant changes”. In the series with cuticle bleeding time (rabbits, n=4, ±1.26), the “increase of cuticle BT from pre-administration baseline” value came out at 2.14 fold. The “effects on hematological parameters as compared to saline controls” value in the series on rabbit venous thrombosis [1] is “no significant effects”. In series [2] (rabbit, in vivo, iv, 2 mg/kg), the “changes in hematological parameters as compared to saline controls” value is on record as “no significant changes”. Further, the “peak plasma concentration by HPLC” value in series [3] was 3.78 µg/mL.

For `CC(C)(C)OC(=O)N[C@H](CCCNC(=N)N)C(=O)NCC(=O)N[C@H](C=O)CCCNC(=N)N` [Boc--D-Arg--Gly--Arg--H, Boc-D-Arg-Gly-Arg-H] (Boc-[dR]-Gly-Arg-aldehyde), in the series on rabbit venous thrombosis [4], the “antithrombotic efficacy in the rabbit venous thrombosis model” value is recorded as “antithrombotic efficacy at the higher doses evaluated”. In series [2] (rabbits, I.V. bolus 2.0 mg/kg), the FIB prolongation stood at 1.07 fold, the PT prolongation was 1.15 fold, the “aPTT prolongation as compared to pretreatment values” is 2.45 fold and the anticoagulative effect result was “plasma concentration-dependent anticoagulative effect”.
